Results reported in ChEMBL document CHEMBL1147452, “A new approach to the synthesis of optically active alkylated adenine derivatives” (Bioorg Med Chem Lett, 2004).

What was measured:
[1] = Cytotoxic concentration at which cell viability was reduced by 50%; type: functional
Vaccinia virus = test: Inhibitory concentration required against vaccinia virus in Vero cell culture; type: functional, organism-based; settings: Orthopoxvirus vaccinia
Monkeypox virus = test: Inhibitory concentration required against Monkeypox virus in Vero cell culture; type: functional, organism-based
Cowpox virus = test: Inhibitory concentration required against Cowpox virus in Vero cell culture; type: functional, organism-based
Variola virus = test: Inhibitory concentration required against replication of small pox virus (strain India 3a) in Vero cells; type: functional, organism-based

SMILES | CC50 [1] [µM] | IC50 (Vaccinia virus) [µM] | IC50 (Monkeypox virus) [µM] | IC50 (Cowpox virus) [µM] | IC50 (Variola virus) [µM]
Nc1ncnc2c1ncn2C[C@@H](O)CO | > 500 | > 500 | > 500 | > 500 | –
Nc1ncnc2c1ncn2C[C@H]1COP(=O)(O)CO1 | > 350 | 41 | 48 | 61 | –
Nc1ncnc2c1ncn2C[C@H](O)C(=O)O | – | – | – | – | 91
COC(CO)O[C@@H](CO)Cn1cnc2c(N)ncnc21 (some centres undefined) | – | – | – | – | 62
Nc1ncnc2c1ncn2C[C@H](O)CO [(S)-DHPA] | > 500 | 34 | 54 | 49 | 41
Nc1ncnc2c1ncn2C[C@@H]1COP(=O)(O)CO1 | > 350 | > 350 | > 350 | > 350 | –
